Assay results: US9206167B2, “Piperazine-substituted benzothiophenes for treatment of mental disorders” (Otsuka Pharmaceutical Co., Ltd., priority 2005, dated 2015)
Structures can show the parent of a compound that is named as a salt.

Tests used:
Dopamine D2 receptor = Dopamine D2 receptor (Rattus norvegicus (Rat), UniProt P61169); assay: Dopamine D2 receptor binding assay ([3H]-raclopride, rat corpus striatum membrane); conditions: Ki from IC50 by Cheng-Prussoff formula
Protocol: Pharmacological Test 1 1) Dopamine D2 Receptor Binding Assay
Wistar male rats were decapitated, the brain was retrieved immediately and corpus striatum was taken out. It was homogenized in 50 mM tris(hydroxymethyl)aminomethane (Tris)-hydrochloric acid buffer (pH 7.4) of a volume 50 times of the weight of the tissue using a homogenizer with a high-speed rotating blade, and centrifuged at 4° C., 48,000×g for 10 minutes. The obtained precipitate was suspended again in the above-described buffer of a volume 50 times of the weight of the tissue and after incubated at 37° C. for 10 minutes, centrifuged in the above-described condition. The obtained precipitate was suspended in 50 mM (Tris)-hydrochloric acid buffer (containing 120 mM NaCl, 5 mM KCl, 2 mM CaCl2, 1 mM MgCl2, pH 7.4) of a volume 25 times of the weight of the tissue and preserved by freezing at −85° C. till it was used for binding assay as a membrane specimen.
The binding assay was performed using 40 μl of the membrane specimen, 20 μl of [^3H]-raclopride (final concentration 1 to 2 nM), 20 μl of a test drug and 50 mM Tris-hydrochloric acid buffer (containing 120 mM NaCl, 5 mM KCl, 2 mM CaCl2, 1 mM MgCl2, pH 7.4) so that the total amount was 200 μl (final dimethylsulfoxide concentration 1%). The reaction was performed at room temperature for 1 hour and terminated by conducting suction filtration with a cell harvester on a glass fiber filter plate. The filter plate made of glass fiber was washed with 50 mM Tris-hydrochloric acid buffer (pH 7.4), and after dried, a microplate liquid scintillation cocktail was added and the radioactivity was measured with a microplate scintillation counter. Radioactivity in the presence of 10 μM (+)-butaclamol hydrochloride was assumed as nonspecific binding.
(§1) IC50 value was calculated from concentration-dependent reaction using a non-linear analysis program. Ki value was calculated from IC50 value using Cheng-Prussoff formula.

Serotonin (5-HT) uptake = Serotonin (5-HT) uptake (Rattus norvegicus (Rat), UniProt P31652); assay: Serotonin (5-HT) uptake inhibitory activity by rat brain synaptosome; type: biochemical; conditions: test compound 300 nM, rat frontal cortex synaptosome; read-out: Serotonin uptake inhibitory ratio (%) (300 nM)
Protocol: Measurement of Serotonin (5-HT) Uptake Inhibitory Activity of a Test Compound by Rat Brain Synaptosome
Wistar male rats were decapitated, the brain was retrieved and frontal cortex was dissected out, and it was homogenized in 0.32 M sucrose solution of a weight 20 times of the weight of the tissue using a Potter type homogenizer. The homogenate was centrifuged at 4° C., 1,000×g for 10 minutes, the obtained supernatant was further centrifuged at 4° C., 20,000×g for 20 minutes, and the pellet was suspended in an incubation buffer (20 mM Hepes buffer (pH 7.4) containing 10 mM glucose, 145 mM sodium chloride, 4.5 mM potassium Chloride, 1.2 mM magnesium chloride, 1.5 mM calcium chloride), which was used as crude synaptosome fraction.
5-HT uptake reaction was performed in a volume of 200 μl using a 96-well round bottom plate and pargyline (final concentration 10 μM) and sodium ascorbate (final concentration 0.2 mg/ml) were contained in the incubation buffer upon reaction and used.
Incubation buffer (total counting), non-labeled 5-HT (final concentration 10 μM, non-specific counting) and the diluted test compound (final concentration 300 nM) were added to each well. One-tenth quantity of the final volume of the synaptosome fraction was added and after preincubated at 37° C. for 10 minutes, tritium labeled 5-HT solution (final concentration 8 nM) was added and uptake reaction was started at 37° C. The uptake time was 10 minutes and the reaction was terminated by vacuum filtration through a 96-well fiber glass filter paper plate, and after the filter paper was washed with cold normal saline, it was dried enough and Microscint0 (Perkin-Elmer) was added to the filter and remaining radioactivity on the filter was measured.

[1] = biological target: Serotonin 5-HT2A receptor (Rattus norvegicus (Rat), UniProt P14842); assay: Serotonin 5-HT2A receptor binding assay ([3H]-Ketanserin, rat frontal cortex membrane); conditions: Ki from IC50 by Cheng-Prussoff formula
Protocol: 2) Serotonin 5-HT2A Receptor Binding Assay
The assay was performed according to the method by Leysen J E et al. (Leysen J E, Niemegeers C J E, Van Nueten J M and Laduron P M. [3H] Ketanserin (R 41 468), a selective 3H-ligand for serotonin 2 receptor binding sites. Mol. Pharmacol., 1982, 21: 301-314).
Wistar male rats were decapitated, the brain was retrieved immediately and frontal cortex was taken out. It was homogenized in 0.25 M sucrose of a volume 10 times of the weight of the tissue using a Teflon glass homogenizer, and centrifuged at 4° C., 1,000×g for 10 minutes. The obtained supernatant was transferred to another centrifuge tube and suspended in 0.25 M sucrose of a volume 5 times of the weight of the tissue and the precipitate was centrifuged in the above-described condition. The obtained supernatant was combined with the supernatant obtained above and adjusted to a volume 40 times of the weight of the tissue with 50 mM Tris-hydrochloric acid buffer (pH 7.4), and centrifuged at 4° C., 35,000×g for 10 minutes. The obtained precipitate was suspended again in the above-described buffer of a volume 40 times of the weight of the tissue and centrifuged in the above-described condition. The obtained precipitate was suspended in the above-described buffer of a volume 20 times of the weight of the tissue and preserved by freezing at −85° C. till it was used for binding assay as a membrane specimen.
The binding assay was performed using 40 μl of the membrane specimen, 20 μl of [^3H]-Ketanserin (final concentration 1 to 3 nM), 20 μl of a test drug and 50 mM Tris-hydrochloric acid buffer (pH 7.4) so that the total amount was 200 μl (final dimethylsulfoxide concentration 1%). The reaction was performed at 37° C. for 20 minutes and terminated by conducting suction filtration with a cell harvester on a glass fiber filter plate.
The filter plate made of glass fiber was washed with 50 mM Tris-hydrochloric acid buffer (pH 7.4), and after dried, a microplate liquid scintillation cocktail was added and the radioactivity was measured with a microplate scintillation counter. Radioactivity in the presence of 10 μM spiperone was assumed as nonspecific binding.
as §1

Chain of Serotonin 5-HT2A receptor (P14842 whole entry): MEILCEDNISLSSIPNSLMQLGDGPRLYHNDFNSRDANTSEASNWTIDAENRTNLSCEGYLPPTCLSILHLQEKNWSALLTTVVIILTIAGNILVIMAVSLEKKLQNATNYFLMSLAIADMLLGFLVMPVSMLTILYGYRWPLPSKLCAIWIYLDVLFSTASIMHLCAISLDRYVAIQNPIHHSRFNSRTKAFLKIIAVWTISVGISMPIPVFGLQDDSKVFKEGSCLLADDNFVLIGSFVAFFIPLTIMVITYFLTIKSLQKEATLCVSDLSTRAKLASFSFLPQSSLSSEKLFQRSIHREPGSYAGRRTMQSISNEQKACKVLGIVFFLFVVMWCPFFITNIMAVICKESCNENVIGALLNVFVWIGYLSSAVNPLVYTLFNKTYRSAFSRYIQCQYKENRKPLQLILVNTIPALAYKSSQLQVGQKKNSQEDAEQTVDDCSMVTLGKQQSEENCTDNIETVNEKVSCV
Chain of Dopamine D2 receptor (P61169 whole entry): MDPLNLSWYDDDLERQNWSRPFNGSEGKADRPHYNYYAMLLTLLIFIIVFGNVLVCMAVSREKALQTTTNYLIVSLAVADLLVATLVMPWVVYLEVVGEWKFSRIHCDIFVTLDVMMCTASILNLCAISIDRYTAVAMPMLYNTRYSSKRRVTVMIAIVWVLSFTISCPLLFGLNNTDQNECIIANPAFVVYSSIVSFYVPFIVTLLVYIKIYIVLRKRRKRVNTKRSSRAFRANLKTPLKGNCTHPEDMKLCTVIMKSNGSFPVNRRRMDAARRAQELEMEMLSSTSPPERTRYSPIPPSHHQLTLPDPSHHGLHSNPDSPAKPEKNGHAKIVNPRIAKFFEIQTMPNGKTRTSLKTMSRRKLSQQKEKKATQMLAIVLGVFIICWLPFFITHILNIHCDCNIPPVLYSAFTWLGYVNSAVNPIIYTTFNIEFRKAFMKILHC
Chain of Serotonin (5-HT) uptake (P31652 whole entry): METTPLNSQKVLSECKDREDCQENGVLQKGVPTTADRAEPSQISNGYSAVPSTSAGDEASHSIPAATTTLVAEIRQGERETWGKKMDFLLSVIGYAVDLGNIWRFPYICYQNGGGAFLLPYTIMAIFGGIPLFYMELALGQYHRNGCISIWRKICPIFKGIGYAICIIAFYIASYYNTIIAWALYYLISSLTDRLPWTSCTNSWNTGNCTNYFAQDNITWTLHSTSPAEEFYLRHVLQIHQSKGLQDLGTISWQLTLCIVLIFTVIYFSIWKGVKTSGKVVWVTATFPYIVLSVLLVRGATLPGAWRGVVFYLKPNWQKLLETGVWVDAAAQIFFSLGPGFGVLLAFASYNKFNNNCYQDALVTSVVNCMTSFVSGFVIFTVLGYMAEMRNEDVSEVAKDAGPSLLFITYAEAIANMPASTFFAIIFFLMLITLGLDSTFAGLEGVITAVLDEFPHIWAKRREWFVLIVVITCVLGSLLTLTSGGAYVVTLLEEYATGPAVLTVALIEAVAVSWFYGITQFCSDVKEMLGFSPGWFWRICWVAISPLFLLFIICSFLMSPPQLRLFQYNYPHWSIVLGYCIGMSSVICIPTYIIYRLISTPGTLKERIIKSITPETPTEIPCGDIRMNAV

inhibition at 0.3 µM (Serotonin (5-HT) uptake) [%] | SMILES | Ki (Dopamine D2 receptor) [nM] | Ki [1] [nM] | Ki ([1]; hydrochloride) [nM]
– | O=C1CCc2cc(CO)c(OCCCN3CCN(c4cccc5sccc45)CC3)cc2N1 [Example 139] | 0.2 | – | –
– | CN1CCc2ccc(OCCCCN3CCN(c4cccc5sccc45)CC3)cc2C1=O [Example 32, 7-[4-(4-benzo[b]thiophen-4-yl-piperazin-1-yl)butoxy]-2-methyl-3,4-dihydro-2H-isoquinolin-1-one hydrochloride] | 1.5 | – | –
87.2 | O=C1CCc2ccc(OC/C=C/CN3CCN(c4cccc5sccc45)CC3)cc2N1 [Example 15, 7-[4-(4-benzo[b]thiophen-4-yl-piperazin-1-yl)-(E)-2-butenyloxy]-3,4-dihydro-1H-quinolin-2-one] | 0.2 | 3.3 | –
– | O=C1CCc2ccc(OCCCCN3CCN(c4cccc5sccc45)CC3)cc2N1 [Example 12, 7-[4-(4-benzo[b]thiophen-4-yl-piperazin-1-yl)butoxy]-3,4-dihydro-1H-quinolin-2-one hydrochloride] | – | – | 2.1
– | O=C1CCc2cccc(OCCCCN3CCN(c4cccc5sccc45)CC3)c2N1 [Example 186] | 2.3 | 8.8 | –
– | Cc1cc(=O)[nH]c2ccc(OCCCCN3CCN(c4cccc5sccc45)CC3)cc12 [Example 185] | 2.7 | 5 | –
92 | CN1CCc2cc(OCCCN3CCN(c4cccc5sccc45)CC3)ccc2C1=O [Example 26, 6-[3-(4-benzo[b]thiophen-4-yl-piperazin-1-yl)propoxy]-2-methyl-3,4-dihydro-2H-isoquinolin-1-one] | 3.5 | 4.4 | –
– | O=c1ccc2cc(OCCCCN3CCN(c4cccc5sccc45)CC3)cc(F)c2[nH]1 [Example 184] | 2.6 | 4.3 | –
– | O=C1CCc2ccc(OCCCCN3CCN(c4cccc5sccc45)CC3)cc2N1 [Example 11, 7-[4-(4-benzo[b]thiophen-4-yl-piperazin-1-yl)butoxy]-3,4-dihydro-1H-quinolin-2-one] | – | 5.7 | –
– | O=C1CCc2c(cccc2OCCCN2CCN(c3cccc4sccc34)CC2)N1 [Example 122] | 3.3 | 2.9 | –
77 | O=C1CCc2ccc(OC/C=C\CN3CCN(c4cccc5sccc45)CC3)cc2N1 [Example 13, 7-[4-(4-benzo[b]thiophen-4-yl-piperazin-1-yl)-(Z)-2-butenyloxy]-3,4-dihydro-1H-quinolin-2-one] | 2.4 | – | –
– | O=c1c2cc(O)ccc2ccn1CCCCN1CCN(c2cccc3sccc23)CC1 [Example 39, 2-[4-(4-benzo[b]thiophen-4-yl-piperazin-1-yl)butyl]-7-hydroxy-2H-isoquinolin-1-one hydrobromide] | 1.2 | – | –
– | O=c1ccc2cc(OCCCN3CCN(c4cccc5sccc45)CC3)cc(F)c2[nH]1 [Example 118] | 3.5 | 3.4 | –
– | O=c1ccc2cccc(OCCCCN3CCN(c4cccc5sccc45)CC3)c2[nH]1 [Example 188] | 1.6 | 6.3 | –
– | O=C1CCc2c(O)ccc(OCCCN3CCN(c4cccc5sccc45)CC3)c2N1 [Example 190] | 0.8 | – | –
– | O=c1[nH]ccc2ccc(OCCCN3CCN(c4cccc5sccc45)CC3)cc12 [Example 35, 7-[3-(4-benzo[b]thiophen-4-yl-piperazin-1-yl)propoxy]-2H-isoquinolin-1-one] | 1.6 | – | –
– | O=C1NCCc2ccc(OCCCN3CCN(c4cccc5sccc45)CC3)cc21 [Example 28, 7-[3-(4-benzo[b]thiophen-4-yl-piperazin-1-yl)propoxy]-3,4-dihydro-2H-isoquinolin-1-one] | 1.2 | – | –
– | O=C1CCc2ccccc2N1CCCCCN1CCN(c2cccc3sccc23)CC1 [Example 22, 1-[5-(4-benzo[b]thiophen-4-yl-piperazin-1-yl)pentyl]-3,4-dihydro-1H-quinolin-2-one hydrochloride] | 4 | – | –
– | Cc1cccc2cc(OCCCN3CCN(c4cccc5sccc45)CC3)c(=O)[nH]c12 [Example 117] | 4.7 | – | –
– | COc1ccc2ccn(CCCCN3CCN(c4cccc5sccc45)CC3)c(=O)c2c1 [Example 38, 2-[4-(4-benzo[b]thiophen-4-yl-piperazin-1-yl)butyl]-7-methoxy-2H-isoquinolin-1-one hydrochloride] | – | 7.3 | –
91.9 | O=C1NCCc2cc(OCCCN3CCN(c4cccc5sccc45)CC3)ccc21 [Example 25, 6-[3-(4-benzo[b]thiophen-4-yl-piperazin-1-yl)propoxy]-3,4-dihydro-2H-isoquinolin-1-one] | – | 4.6 | –
– | CCN1CCc2ccc(OCCCN3CCN(c4cccc5sccc45)CC3)cc2C1=O [Example 31, 7-[3-(4-benzo[b]thiophen-4-yl-piperazin-1-yl)propoxy]-2-ethyl-3,4-dihydro-2H-isoquinolin-1-one dihydrochloride] | 1.4 | – | –
– | O=C1CCc2cc(OCCCN3CCN(c4cccc5sccc45)CC3)cc(F)c2N1 [Example 116] | 4.5 | 4.2 | –
– | CC(=O)Nc1ccc(OCCCN2CCN(c3cccc4sccc34)CC2)c2c1NC(=O)CC2 [Example 155] | 2.3 | 3 | –
– | Cn1ccc2ccc(OCCCN3CCN(c4cccc5sccc45)CC3)cc2c1=O [Example 36, 7-[3-(4-benzo[b]thiophen-4-yl-piperazin-1-yl)propoxy]-2-methyl-2H-isoquinolin-1-one hydrochloride] | – | 2.1 | –

SMILES | inhibition at 0.3 µM (Serotonin (5-HT) uptake) [%] | Ki (Dopamine D2 receptor) [nM] | Ki [1] [nM] | Ki ([1]; hydrochloride) [nM]
O=C1CCc2cc(OCCCCN3CCN(c4cccc5sccc45)CC3)ccc2N1 [Example 20, 6-[4-(4-benzo[b]thiophen-4-yl-piperazin-1-yl)butoxy]-3,4-dihydro-1H-quinolin-2-one] | 92.8 | 1.5 | 3.3 | –
Cc1cc2ccc(OCCCCN3CCN(c4cccc5sccc45)CC3)cc2[nH]c1=O [Example 6, 7-[4-(4-benzo[b]thiophen-4-yl-piperazin-1-yl)butoxy]-3-methyl-1H-quinolin-2-one] | 91.3 | 0.8 | – | –
O=c1[nH]c2ccccc2cc1OCCN1CCN(c2cccc3sccc23)CC1 [Example 2, 3-[2-(4-benzo[b]thiophen-4-yl-piperazin-1-yl)ethoxy]-1H-quinolin-2-one] | 78.8 | – | 1.5 | –
